Each structure is given as a SMILES string.

One assay relates to Rat Limb Bones (PTH induced bone resorption). Description: Bone Resorption Assay: 45Ca Release from Rat Limb Bones (PTH Induced). It is filed as cell-based, rat (Sprague-Dawley CD). Conditions: Rattus norvegicus; Table I; read-out: Inhibition of Bone Resorption, PTH Induced IC50. On the procedure: The purpose of this assay is to identify compounds that inhibit basal or stimulated bone resorption in culture.
The ability of 2-substituted-imidazo[4,5-c]pyridines to modify the process of bone resorption was evaluated essentially as described by L.G. Raisz, Bone resorption in tissue culture. Factors influencing the response to parathyroid hormone.
Timed pregnant Sprague-Dawley CD® rats (Charles River) are administered 100 μCi ^45 CaCl2 (NEN calcium -45 NEZ-013) in 100 μL of 0.9% saline, subcutaneously, on day 18 of gestation. The rats are sacrificed the following day by CO2 asphyxiation. The fetuses are removed and the right forelimbs excised and placed in a Petri dish containing ice cold explant medium consisting of modified BGJb -Fitton Jackson media (custom formulation, Gibco No. 78-0088) adjusted to pH 7.3 to which 10 mM TES is added. […] Under a dissecting microscope, the bones are gently cleaned of adherent tissue and the cartilaginous ends removed. Incubation and drug treatment. […] The preincubation medium is brought to 37° C. prior to transfer of bones. The preincubation medium consists of the modified BGJb medium (with salts and glucose as above), pH 7.3, containing 29 mM NaHCO3. […] For compounds that require nonaqueous solvents, dilutions are made from the appropriate stock solution with medium. In these instances, basal and bone resorption stimulated controls exposed to an equivalent concentration of the vehicle are included. […] The right ulna and radius from each fetus are used. Both bones are subjected to the same treatment and each treatment group consists of bones from 4 or more fetuses. Treatments are randomly assigned using a preclinical statistics program (PS-ALLOC). After a 48 hour incubation at 37° C. in 5% CO2, the bones are removed from the medium and extracted in 0.5 mL of 0.1N HCl for 1 or more days. Duplicate 150 μL aliquots of the incubation medium and the bone extract are analyzed for ^45 Ca radioactivity in 5 mL of liquid scintillation cocktail.
The percentage of bone ^45 Ca released into the medium is determined as follows: [formula] […]
As usually defined, the IC50 is the concentration needed to halve the response being measured. For the compound `COc1cccc(C[S+]([O-])c2nc3cnccc3[nH]2)c1` (centres unmarked) [Example 3, 2-[[(3-Methoxyphenyl)methyl]sulfinyl]-1H-imidazo[4,5-c]pyridine], the IC50 stood at 49 µM.

The same assay, now with this note: Table I, 10 μg/mL.
As for `[O-][S+](Cc1c(F)cccc1Cl)c1nc2cnccc2[nH]1` (centres unmarked) [Example 10, 2-[[(2-Chloro-6-fluorophenyl)methyl]-sulfinyl]-1H-imidazo[4,5-c]pyridine], the “Inhibition of Bone Resorption, PTH Induced” value (“Inhibition … PTH Induced” for short) was “Active”.

As for `[O-][S+](Cc1ccc(F)c(F)c1)c1nc2cnccc2[nH]1` (centres unmarked) [Example 31, 2-[[(3,4-Difluorophenyl)methyl]sulfinyl]-1H-imidazo[4,5-c]-pyridine-One Tenth Hydrate], the “Inhibition … PTH Induced” value was “Active”.

Consider `[O-][S+](Cc1cccc(OCc2ccccc2)c1)c1nc2cnccc2[nH]1` (centres unmarked) [Example 23], for which the “Inhibition … PTH Induced” value is given as “Active”.

For the compound `[O-][S+](Cc1cccc(C(F)(F)F)c1)c1nc2cnccc2[nH]1` (centres unmarked) [Example 8, 2-[[[3-(Trifluoromethyl)phenyl]methyl]-sulfinyl]-1H-imidazo[4,5-c]pyridine], the “Inhibition … PTH Induced” value is recorded as “Active”.

Regarding `[O-][S+](Cc1cc2c(cc1Cl)OCO2)c1nc2cnccc2[nH]1` (centres unmarked) [Example 25], the “Inhibition … PTH Induced” value is on record as “Active”.

For `Cc1cc(C)c(C[S+]([O-])c2nc3cnccc3[nH]2)c(C)c1` (centres unmarked) [Example 19, 2-[[(2,4,6-Trimethylphenyl)methyl]sulfinyl]-1H-imidazo[4,5-c]pyridine], the “Inhibition … PTH Induced” value is on record as “Active”.

Consider `[O-][S+](CCc1ccccc1)c1nc2cnccc2[nH]1` (centres unmarked) [Example 14, 2-[(2-Phenylethyl)sulfinyl]-1H-imidazo[4,5-c]pyridine], for which the “Inhibition … PTH Induced” value is given as “Active”.

The same assay, now with this note: Table I, concentration not given.
As to `COc1cccc(C[S+]([O-])c2nc3cnccc3[nH]2)c1` (centres unmarked) [Example 3, 2-[[(3-Methoxyphenyl)methyl]sulfinyl]-1H-imidazo[4,5-c]pyridine], the “Inhibition … PTH Induced” value is reported as “Active”.

The subject of another assay is Rat Limb Bones (basal bone resorption). Description: Basal Bone Resorption Assay: 45Ca Release from Rat Limb Bones. It is filed as cell-based. Conditions: Table I, 10 μg/mL. The text has this:
The purpose of this assay is to test stimulators and inhibitors of bone resorption in vitro. The release of ^45 Ca from in vitro labeled murine bone explants into the culture media is taken as an index of bone resorption.
Rat pups are labelled […] by injecting pregnant dams (18 days) with 100 μCi of ^45 Ca.
Two days after the initiation of labelling, the dam is anesthetized with halothane and killed by cervical dislocation. The pups are ablated and quickly decapitated. The calvaria (frontal and parietal bones), forelimbs (containing radii and ulnae), and hind limbs (tibiae) are removed and placed in control media in a petri dish. Bones are debrided of soft tissue by a combination of blunt dissection, and gentle rolling on bibulous paper, taking care not to disturb the periosteum. Cartilaginous ends are cut off long bones. Calvaria are cut in half along midline suture. Bones are separated into 3 categories: calvaria halves, Tibiae and ulnae/radii. Groups of eight (per bone group) are randomly placed in 24-well culture plates containing 0.5 mL of control media. Cultures are maintained at 37° C. in a humidified incubator of 95% air: 5% CO2.
These bones are incubated for 24 hours, media is aspirated from the bones and replaced with fresh media containing test substances. Each bone group has a control group of 8 and a dead bone group of 8. The devitalized cultures are obtained by heating the bones in medium at 55° C. for 60 minutes. The bones are incubated at 37° C. for an additional 72 hours. At the end of this period a 100 microliter aliquot of media is removed and placed in a scintillation vial. Ten mL of Aquasol is added, the ^45 Ca is quantified in a scintillation spectrometer. Bones are rinsed in saline, placed in a scintillation vial, hydrolyzed overnight in 0.75 mL 6N HCl at room temperature. The hydrolyzed bone solution is neutralized by the addition of 2.25 mL of 2N NaOH, followed by 10 mL of Aquasol, the ^45 Ca content is determined by scintillation spectrometry.
Analysis: ^45 Ca release into culture medium from the 24-96 hour period is individually compared to ^45 Ca release in control cultures and to devitalized bone via Dunnett's test. […]
As to `[O-][S+](Cc1c(F)cccc1Cl)c1nc2cnccc2[nH]1` (centres unmarked) [Example 10, 2-[[(2-Chloro-6-fluorophenyl)methyl]-sulfinyl]-1H-imidazo[4,5-c]pyridine], the “Inhibition of Bone Resorption, Basal” value is reported as “Active”.

In the case of `[O-][S+](Cc1ccc(F)c(F)c1)c1nc2cnccc2[nH]1` (centres unmarked) [Example 31, 2-[[(3,4-Difluorophenyl)methyl]sulfinyl]-1H-imidazo[4,5-c]-pyridine-One Tenth Hydrate], the “Inhibition of Bone Resorption, Basal” value was “Active”.

`[O-][S+](Cc1cccc(OCc2ccccc2)c1)c1nc2cnccc2[nH]1` (centres unmarked) [Example 23]: the “Inhibition of Bone Resorption, Basal” value is recorded as “Active”.

In the case of `COc1cccc(C[S+]([O-])c2nc3cnccc3[nH]2)c1` (centres unmarked) [Example 3, 2-[[(3-Methoxyphenyl)methyl]sulfinyl]-1H-imidazo[4,5-c]pyridine], the “Inhibition of Bone Resorption, Basal” value is on record as “Active”.

On to `[O-][S+](Cc1cc2c(cc1Cl)OCO2)c1nc2cnccc2[nH]1` (centres unmarked) [Example 25], for which the “Inhibition of Bone Resorption, Basal” value is on record as “Active”.

`Cc1cc(C)c(C[S+]([O-])c2nc3cnccc3[nH]2)c(C)c1` (centres unmarked) [Example 19, 2-[[(2,4,6-Trimethylphenyl)methyl]sulfinyl]-1H-imidazo[4,5-c]pyridine]: the “Inhibition of Bone Resorption, Basal” value is “Active”.

As to `[O-][S+](CCc1ccccc1)c1nc2cnccc2[nH]1` (centres unmarked) [Example 14, 2-[(2-Phenylethyl)sulfinyl]-1H-imidazo[4,5-c]pyridine], the “Inhibition of Bone Resorption, Basal” value is recorded as “Active”.

Still in this assay, the particulars now being: Table I, concentration not given.
Take `[O-][S+](Cc1cccc(C(F)(F)F)c1)c1nc2cnccc2[nH]1` (centres unmarked) [Example 8, 2-[[[3-(Trifluoromethyl)phenyl]methyl]-sulfinyl]-1H-imidazo[4,5-c]pyridine]: the “Inhibition of Bone Resorption, Basal” value is listed as “Inactive”.

For another assay, the system named is osteopenia induced by denervation of the sciatic nerve in rats. The assay is described as follows: Denervation Induced Osteopenia in Rats. It is filed as in vivo, rat (female Sprague Dawley CD). Conditions: po, 672 h. The source says:
The purpose of this assay is to evaluate the effect, in rats, of agents on the reduction in bone mass (osteopenia) induced by immobilization resulting from surgical severance (denervation) of the sciatic nerve.
The animals are housed in plastic cages (4 or 5 rats/cage) with food (rat purina 500 chow) and water ad libitum; 14/10 day/night cycle.
After one week of in-house acclimatization, the animals are randomly divided into groups of 6 to 10 rats/group. Each rat is weighed, anesthetized with an intraperitoneal administration of 100 mg/kg ketamine (Bristol Laboratories, Syracuse, N.Y.) and 0.75 mg/kg Acepromazine (Aveco, Ft. Dodge, Iowa). The left hind limb is shaved and denervated by making a lateral incision parallel to the femur and by surgically removing half of a centimeter of the sciatic nerve adjacent to caudofemoralis and adductor brevis muscles. The incision is closed with wound clips. After surgery, the rats are housed in cages with absorbent bedding to minimize additional trauma to the immobilized limb. A 24 hour post-surgery recovery period is allowed before the initiation of the drug treatment.
The concentration of the drug stock is calculated to be delivered in a volume of 0.1 mL/100 gram body weight. The drug solution or a uniform suspension is prepared in 1% Tween 80 in normal saline. The drugs are administered via oral or parenteral routes daily (five times a week) for four weeks.
A sequential triple labeling of mineralized tissue is employed to determine the osseous changes (especially the bone formation) and the mineralization rates. Each animal is administered 90 mg/kg Xylenol orange (Fisher Scientific Company), S.C., 15 mg/kg Calcein (Sigma Chemical Company), S.C. and 15 mg/kg Demeclocycline (Sigma Chemical Company), i.p., approximately 21 days, 10 days and 2 days prior to the termination of the study, respectively.
At the end of the fourth week, each rat is weighed, anesthetized with an intraperitoneal administration of 100 mg/kg ketamine with 0.75 mg/kg Acepromazine and approximately 4 mL of blood collected via cardiac puncture. The anesthetized rats are euthanized by exposure to carbon dioxide. The femora and tibiae from both limbs are dissected free of soft tissue. (i) Femora are ashed at ~1100° C. for 16 hours using a muffle furnace. --(ii) Proximal tibia are fixed, dehydrated and embedded undecalcified in a methyl methacrylate-glycol methacrylate mixture. Longitudinal tissue sections (10 microns) are prepared on a Polycut S microtome (Reichert). Staining is performed on free-floating sections using a modified Goldner's stain, which are then mounted and coverslipped.
Cancellous bone content in the proximal tibia is quantified (as two dimensional bone mineral area [B.Ar]) with an image analysis processing device (software developed by Drexel University).
The areas of the tibia selected for cancellous bone content evaluation are the primary and secondary spongiosa. To select and standardize this area for evaluation, the epiphyseal growth plate-metaphyseal junction is oriented parallel to the abscissa of the digitizing screen. Bone elements 1.7 mm (secondary spongiosa) and 0.2 mm (primary spongiosa) from the growth plate and equidistant from the flanking cortical elements are then quantified as described above. The total area evaluated is 2.30 mm wide and 1.45 mm deep, constituting a 3.34 mm^2 area.
Body weight, femur mass (dried or ashed) and trabecular (cancellous) bone mineral area (B.Ar) are determined.
The difference (both absolute and percent change) in femur mass and bone mineral area between intact (control) and denervated limbs of a treatment group are compared with that for the vehicle group using a one-way analysis of variance with Dunnett's test, or other multiple comparison methods.
The results are reported in Table I and II under the heading In Vivo.
For `[O-][S+](Cc1c(F)cccc1Cl)c1nc2cnccc2[nH]1` (centres unmarked) [Example 10, 2-[[(2-Chloro-6-fluorophenyl)methyl]-sulfinyl]-1H-imidazo[4,5-c]pyridine], the “Inhibition of Bone Resorption, In Vivo” value was “Inactive”.

In the case of `[O-][S+](Cc1ccc(F)c(F)c1)c1nc2cnccc2[nH]1` (centres unmarked) [Example 31, 2-[[(3,4-Difluorophenyl)methyl]sulfinyl]-1H-imidazo[4,5-c]-pyridine-One Tenth Hydrate], the “Inhibition of Bone Resorption, In Vivo” value is listed as “Inactive”.

As for `[O-][S+](Cc1cccc(OCc2ccccc2)c1)c1nc2cnccc2[nH]1` (centres unmarked) [Example 23], the “Inhibition of Bone Resorption, In Vivo” value was “Inactive”.

For the compound `COc1cccc(C[S+]([O-])c2nc3cnccc3[nH]2)c1` (centres unmarked) [Example 3, 2-[[(3-Methoxyphenyl)methyl]sulfinyl]-1H-imidazo[4,5-c]pyridine], the “Inhibition of Bone Resorption, In Vivo” value was “Active”.

Regarding `[O-][S+](Cc1cc2c(cc1Cl)OCO2)c1nc2cnccc2[nH]1` (centres unmarked) [Example 25], the “Inhibition of Bone Resorption, In Vivo” value is listed as “Inactive”.

With `Cc1cc(C)c(C[S+]([O-])c2nc3cnccc3[nH]2)c(C)c1` (centres unmarked) [Example 19, 2-[[(2,4,6-Trimethylphenyl)methyl]sulfinyl]-1H-imidazo[4,5-c]pyridine], the “Inhibition of Bone Resorption, In Vivo” value was “Inactive”.

For the origin of these results see patent US5081253A, “Imidazo(4,5-C)pyridines as antiosteoporotic agents” (American Home Products Corporation, priority 1990, dated 1992).
